Entries after “also recorded” stand apart in the source; their conditions may differ.
Columns and labels:
[1] = tested on: unilateral 6-hydroxydopamine (6-OHDA)-lesioned rats; assay: Local-field activity recordings in M1 and DLS, rodent Parkinson's disease model; type: in vivo, rat; conditions: 20 mg/kg, 5 i.p. injections every 2 hours
Procedure: Using a 10-hour racemic ketamine paradigm (5 i.p. injections every 2 hours), simultaneous measurement of local-field activity in multiple brain structures in three awake and behaving unilateral 6-hydroxydopamine (6-OHDA)-lesioned rats, a common model of Parkinson's disease. Recordings were acquired from a 64 channel fixed electrode array. Average response across 3 animals. Power spectrogram from a 10 hour session created by averaging spectra acquired. Vertical lines indicate ketamine injection times.

striatal DA content = assay: Electrochemical detection (HPLC-EC) of striatal DA content; type: in vivo, rat
Procedure: Measurement of dopamine content: Coronal brain slices were collected and 2 mm steel biopsy punches were used to sample striatal tissue. Samples from left and right hemispheres were collected and immediately flash frozen on an aluminum pan at −70° C., as published (Flores et al., 2014). Samples massed at 2.5±0.5 mg and were then homogenized in dilute perchloric acid. High performance liquid chromatography with electrochemical detection (HPLC-EC) was used to quantify DA.

[2] = tested on: unilaterally 6-OHDA-lesioned LID rats; assay: L-DOPA-induced AIMs in the preclinical rat LID model (10 hr ketamine 'infusion' paradigm or acute injection); conditions: cohort #1; for L-DOPA-induced contralateral locomotor behavior / ipsiversive turning behavior (worsening of the Parkinsonism): all tested doses; for L-DOPA-induced contralateral locomotor behavior: 10 hr 'infusion'; for ipsiversive turning behavior (worsening of the Parkinsonism): in the presence of L-DOPA
[3] = tested on: awake and behaving naive rats; assay: Local-field activity recordings in motor cortex (M1) and dorsolateral striatum (DLS), naive rats; type: in vivo, rat; conditions: 20 mg/kg, 5 i.p. injections every 2 hours
Procedure: Using the 10-hour racemic ketamine paradigm (5 i.p. injections every 2 hours), simultaneous local-field activity in multiple brain structures in two awake and behaving naive rats was measured. Recordings were acquired from a 64 channel fixed electrode array. Average response across 2 animals and 5 sessions was obtained.

[4] = tested on: unilaterally 6-hydroxydopamine (6-OHDA)-lesioned PD rats; assay: Development of LID under once-weekly 10-hour infusion paradigm (LAO AIMs); type: in vivo, rat; conditions: n=9 per group; for animals that did not develop any dyskinesia or only very subtle dyskinesia: 6 and 12 mg/kg L-DOPA periods
Procedure: Unilaterally 6-hydroxydopamine (6-OHDA)-lesioned PD rats were injected daily with L-DOPA (days 0-13: 6 mg/kg; days 14-28: 12 mg/kg; i.p.) to induce dyskinesia and tested for limb, axial and oral (LAO) abnormal involuntary movements (AIMs) twice a week for 3 hours by blinded investigators.

patients with PD = assay: Low-dose ketamine infusion in PD patient case studies (retrospective chart review); type: in vivo, human
Procedure: We report on five cases of low-dose ketamine infusion in patients with PD identified by a retrospective chart review (Table 1). Ketamine was indicated for a variety of co-morbid conditions. The level of documentation of PD and LID symptoms pre and post-infusion was variable, but in many cases included standardized clinical rating scales collected by Movement Disorder specialists. […] Patients were treated in the intensive care unit using a protocol developed by one of the authors (ME) for treatment of intractable headache that specified titration of ketamine to a target rate of 0.15 mg/kg/hr for a 72 hr period.

[5] = tested on: tyrosine hydroxylase (TH); assay: Semi-quantitative western analysis of striatal tyrosine hydroxylase expression; type: in vivo, rat; conditions: unilateral lesion; TH normalized to β-actin; n=15
Procedure: Western analysis of tyrosine hydroxylase (TH) content: After the tissue punch, described above, the remaining striata from left and right hemispheres were immediately flash frozen and stored at —70 ° C. Total protein was prepared and semi-quantitative western analysis was conducted as described (Flores et al., 2014; Yue et al., 2014) with 3 modifications. 30 μg of protein/sample was loaded and analyzed on the same blot. Secondary antibody dilution for β-actin: 1:10,000. Images were analyzed with the G:Box XR5 Chemi system (Syngene, Frederick, Md.) using GeneSys v. 1.4.0.0.

[6] = DLS and M1, after each injection

Compound: CNC1(c2ccccc2Cl)CCCCC1=O (racemic) [ketamine, (RS)-2-(2-Chlorophenyl)-2-(methylamino)cyclohexanone]
- gamma band activity (40-60 Hz) [1, 6]: clear increase
- high-frequency activity (120-140 Hz) [1, 6]: clear increase
- beta-gamma cross-frequency coupling (CFC) in the DLS ([1]; following each injection, n=15 sessions across 3 animals): reduced
- striatal [DA] (striatal DA content; acute i.p. 20 mg/kg vs. saline, 30 min before euthanasia): unchanged
- change in the already-reduced AIMs score ([2]; 10 mg/kg ketamine-'infusion' given after the other treatments (test for sensitization)): No change
- persistent reduction of AIMs scores lasted (post-injection) ([2]; 20 mg/kg ketamine-'infusion'): at least 55 days
- L-DOPA-induced contralateral locomotor behavior [2]: did not significantly change
- L-DOPA-induced contralateral locomotor behavior ([2]; listed as Ketamine): did not have a significant effect
- ipsiversive turning behavior (worsening of the Parkinsonism) [2]: did not acutely induce
- ipsiversive turning behavior (worsening of the Parkinsonism) ([2]; listed as Ketamine): did not induce ipsilateral rotations
- anti-dyskinetic effect (LID / AIMs) ([2]; low-dose ketamine given for a 10 hr period, 5-20 mg/kg): dose-dependent long-term anti-dyskinetic effect; also recorded: Long-term dose-dependent reduction
- LAO-AIMs score, pre-K (20 mg/kg) vs last testing session ([2]; n=5, p<0.05): significantly reduced
- coherence in the HFO frequency band ([3]; M1-DLS): increased
- high-frequency activity (120-140 Hz) ([3]; M1 and DLS, after each injection): clear increase
- correlation (r) of coherence in HFO and beta bands ([3]; n=5 sessions): −0.65
- coherence in the beta band ([3]; with successive injections): decreased
- reduction of mean LAO AIMs scores ([4]; 10-hours infusion paradigm once a week, daily L-DOPA 6 then 12 mg/kg i.p.): 50%
- animals that did not develop any dyskinesia or only very subtle dyskinesia [4]: 4 of 9
- UPDRS Dyskinesia score (sum of items 32-34) (patients with PD; case #1, 72 hr low-dose ketamine infusion): reduced
- dyskinesia (patients with PD; case #1, at second infusion 3 years later despite increase in L-DOPA dose): free of dyskinesia
- dyskinesia (patients with PD; case #1, during and after the infusion, carbidopa/L-DOPA dosages unchanged): improved markedly
- severe tremor (patients with PD; case #1, during second infusion, tremor had returned 3 weeks later): resolved acutely
- % dyskinesia on time (patients with PD; case #1, patient diary, 72 hr low-dose ketamine infusion): reduced
- LID (patients with PD; case #1, weeks 2-4 post-K): completely resolved
- dyskinesia (patients with PD; case #2, low-dose ketamine infusion): dramatic reduction
- depression (patients with PD; case #3): dramatically improved
- motor symptoms (patients with PD; case #3, during the infusion): acutely improved
- dyskinesia (patients with PD; case #3, following the infusion): completely subsided
- headache (patients with PD; case #4): improved
- effect on motor symptoms (patients with PD; cases #4 and 5 (STN DBS-treated)): little effect
- tolerability and safety (patients with PD; five PD case reports overall): excellent tolerability and safety

Compound: NCCc1cc(O)c(O)cc1O [6-OHDA, 6-hydroxydopamine]
- reduction of striatal DA content in the lesioned side (striatal DA content; unilateral lesion, lesioned vs unlesioned side): > 95%
- reduction of striatal TH expression in the lesioned side [5]: 87%

Compound: CN[C@@]1(c2ccccc2Cl)CCCCC1=O [R-ketamine]
- animals that did not develop any dyskinesia or only very subtle dyskinesia [4]: 1

Compound: NC12CC3CC(CC(C3)C1)C2 [amantadine]
- LID (patients with PD; case #2, prior treatment, 200 mg daily): failed to improve

Reference: US20230000797A1, “COMPOSITIONS AND METHODS FOR TREATING MOTOR DISORDERS” (ARIZONA BOARD OF REGENTS ON BEHALF OF THE UNIVERSITY OF …, priority 2015, published 2023)
